{
  "source": "patent US12024490B2",
  "about": "“Polymeric metal chelating compositions and methods of preparing same for controlling growth and activities of living cells and organisms for therapeutic use in treating diseases in animals, fish or humans” (CHELATION PARTNERS INCORPORATED, priority 2016, dated 2024)",
  "test_system": "Staphylococcus aureus",
  "assay": "Growth inhibition (MIC) in RPMI 1640, Staphylococcus aureus",
  "type": "cell-based",
  "conditions": "method of Example 6, read-out: MIC for S. aureus",
  "procedure": "Chelating compositions were assessed for their biological activity in vitro by determination of their growth inhibitory activity for Staphylococcus aureus (strain 038, a clinical isolate from a corneal infection obtained from Dr. Mark Wilcox, University New South Wales, Australia or strain ATCC 43300, a prototypical clinical isolate and reference strain obtained from the American Type Culture Collection) and Candida albicans (SC5314, a prototypical clinical isolate and reference strain obtained from the American Type Culture Collection or strain 3969 a clinical isolate obtained from the Queen Elizabeth II hospital, Halifax, Canada). The microorganisms were grown in RPMI 1640 culture medium and tested in fresh aliquots of RPMI 1640 medium or in medium that had been partially deferrated by the method of Holbein and Mira (Holbein B. E, Mira de Orduña R. 2010, FEMS Microbiol Lett. 307(1):19-24, herein incorporated by reference) to allow testing at low Fe levels or with iron re-added at known concentrations to this deferrated medium. Growth at 30° C. was measured by optical density when the test samples were incubated in tubes or visually when growth was tested in microtitre dish wells. […]",
  "data": [
    {"smiles": "C=C(C)C(=O)NCCn1ccc(=O)c(O)c1C", "note": "[MAHMP, 3-hydroxy-1-(β-methacrylamidoethyl)-2-methyl-4(1H)-pyridinone]", "values": [
      {"measurement": "MIC", "value": 125, "unit": "µg/mL"}
    ]}
  ]
}
